This is an account of results in US20230278996A1, “YKL-40 INHIBITORS AND THEIR THERAPEUTIC APPLICATIONS” (Molecure S.A., priority 2022, published 2023).

Assay [1] concerns the target T1, YKL-40 (Homo sapiens (Human), UniProt P36222). As to the kind of experiment: Bio-layer interferometry (BLITz) Kd of biotinylated compounds. It counts as binding. The conditions noted are these: symbol preceded by asterisk; biotinylated compound on streptavidin biosensor; read-out: YKL-40:4, Kd. The procedure: BLITz system (Sartorius) that used Bio-layer interferometry technology was applied to assess Kd of biotinylated compounds. […] During dehydration process the 10 mM stock of biotinylated compound in DMSO was diluted in MST buffer to final concentration of 0.5 μM. In addition, protein stock of recombinant YKL40 (un-tagged, purified in-house) was also prepared in MST buffer at two concentrations: 200 μM and 400 μM. The dehydrated biosensor was applied on the BLITz system that was followed by 5-step procedure: 1) initial baseline for 30 s with MST buffer in tube, 2) loading of 4 μl of biotinylated compound on drop, 3) baseline for 30 s with MST buffer in tube, 4) association of 4 μl of protein stock at one concentration or MST buffer (negative control), 5) dissociation with MST buffer in tube. The same multi-step measurement was done twice for each protein stock concentration and once for negative control. Kd was measured by the BLITz software based on global fitting using the negative control as a reference.
On the technique in general: Biolayer interferometry detects binding as a change in optical thickness at a sensor tip.

Assay [2] addresses T1, YKL-40. The experiment in a line: YKL-40:4 assay, competitive chitin binding site AlphaScreen. The conditions noted are these: competition with biotinylated compound 4 (20 nM), YKL-40-histag 2.5 nM. (In Alpha technology, singlet oxygen from a donor bead excites a nearby acceptor bead.)
Assay [3] has as its target YKL-40: heparan sulfate interaction (Homo sapiens (Human), UniProt P36222). The experiment in a line: YKL-40:HS assay, heparan sulfate interference AlphaScreen. It counts as binding. The conditions noted are these: competition with biotinylated heparan sulphate (60 nM).
Procedure: In the similar way to establishing YKL-40 chitin binding site competitive AlphaScreen assay (section 3), the YKL-40 AlphaScreen assay using biotinylated 9 kDa heparan sulfate fraction III was established, including the same buffer conditions (50 mM Tris HCl pH 7.4, 150 mM NaCl, 10 mM MgCl2, 0.05% Tween 20, 1 mg/mL BSA 1% DMSO). […] Next, biotinylated heparan sulfate fraction III custom-ordered from Iduron was cross-titrated with histagged YKL-40 using AlphaScreen assay described above.
Positive and negative control wells received just 8 uL of MST buffer containing 2% DMSO without inhibitor in the 2nd step (ii). In addition, negative control received just 8 uL of MST buffer containing 0% DMSO without YKL-40-histag in the 3nd step (iii). Finally, the plate luminescence was excited at 680 nm and the emission read at 520-620 nm using the AlphaScreen module in the The Spark™ 10 M multimode microplate reader (Tecan Trading AG, Männedorf, Switzerland). Inhibition percentage and IC50 values were determined using GraphPad Prism 7.0 software (GraphPad Software, San Diego, Calif., USA).

By Kd is commonly meant the equilibrium constant for the complex coming apart. What is called IC50 is the midpoint of a concentration-inhibition curve. A lower IC50 goes with higher potency.

Where a name gives a salt, the structure may show the parent alone. A value given as a limit tells only on which side of the number the result lay.

T1 sequence (P36222 22-383): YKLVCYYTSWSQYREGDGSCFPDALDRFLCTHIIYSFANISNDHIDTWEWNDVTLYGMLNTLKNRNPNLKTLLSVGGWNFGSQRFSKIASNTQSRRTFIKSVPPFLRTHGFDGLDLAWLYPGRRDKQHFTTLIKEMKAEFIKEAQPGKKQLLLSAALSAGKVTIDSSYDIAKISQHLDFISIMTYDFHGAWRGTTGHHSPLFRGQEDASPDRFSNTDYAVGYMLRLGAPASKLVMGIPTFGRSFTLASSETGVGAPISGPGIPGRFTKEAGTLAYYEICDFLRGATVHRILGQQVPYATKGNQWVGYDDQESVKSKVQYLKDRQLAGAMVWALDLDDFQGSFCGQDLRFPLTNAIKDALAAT
YKL-40: heparan sulfate interaction, sequence (P36222 22-383): as above

Take `O=C(CCCC[C@@H]1SC[C@@H]2NC(=O)N[C@@H]21)NCCOCCOCCOCCOCCOCCOCCOCCOCCOCCOCCOCCOCCC(=O)NC[C@H]1CN(C2CCN(c3ccccn3)CC2)[C@@H](Cc2ccc(Cl)cc2)CO1` [Example 5, N-(((2S,5S)-5-(4-chlorobenzyl)-4-(1-(pyridin-2-yl)piperidin-4-yl)morpholin-2-yl)methyl)-1-(5-((3aS,4S,6aR)-2-oxohexahydro-1H-thieno[3,4-d]imidazol-4-yl)pentanamido)-3,6,9,12,15,18,21,24,27,30,33,36-dodecaoxanonatriacontan-39-amide]: the Kd in assay [1] was less than 100 nM.

Consider `CN1C[C@H](Cc2ccc(Cl)cc2)N(C2CCN(c3ccccn3)CC2)C[C@@H]1Cc1ccc(Cl)cc1` [compound 63, (2S,5S)-2,5-bis(4-chlorobenzyl)-1-methyl-4-(1-(pyridin-2-yl)piperidin-4-yl)piperazine 2,2,2-trifluoroacetate], for which the results for the half-maximal inhibitory concentration (IC50) in assay [2] and in assay [3] were 1000 to 10000 nM and 100 to 1000 nM, respectively.

`CN1C[C@H](Cc2ccc(Cl)cc2)N(C2CCN(c3cc(Cl)ccn3)CC2)C[C@@H]1CN1CCOCC1` [compound 51, 4-(((2S,5S)-5-(4-chlorobenzyl)-4-(1-(4-chloropyridin-2-yl)piperidin-4-yl)-1-methyl-piperazin-2-yl)methyl)morpholine hydrochloride]: the IC50 in assay [2] and in assay [3] was less than 100 nM each time. As for `Cc1ccnc(N2CCC(N3C[C@H](C)OC[C@@H]3Cc3ccc(Cl)cc3)CC2)c1F` [compound 112, (2S,5S)-5-(4-chlorobenzyl)-4-(1-(3-fluoro-4-methylpyridin-2-yl)piperidin-4-yl)-2-methylmorpholine 2,2,2-trifluoroacetate], the IC50 is 100 to 1000 nM in assay [2] and less than 100 nM in assay [3].

As to `CNC(=O)CN1C[C@H](Cc2ccc(Cl)cc2)N(C2CCN(c3ccccn3)CC2)C[C@@H]1C(C)C` [compound 106, 2-((2S,5S)-5-(4-chlorobenzyl)-2-isopropyl-4-(1-(pyridin-2-yl)piperidin-4-yl)piperazin-1-yl)-N-methylacetamide 2,2,2-trifluoroacetate], the IC50 in assay [2] and in assay [3] was less than 100 nM in each case. Turning to `CNC(=O)CN1C[C@H](Cc2ccc(Cl)cc2)N(C2CCN(c3ccccn3)CC2)C[C@@H]1CC(C)C` [compound 95, 2-((2S,5S)-5-(4-chlorobenzyl)-2-isobutyl-4-(1-(pyridin-2-yl)piperidin-4-yl)piperazin-1-yl)-N-methylacetamide 2,2,2-trifluoroacetate], the IC50 in assay [2] and in assay [3] was less than 100 nM in each case.

Regarding `Cc1cnc(N2CCC(N3C[C@H](C)OC[C@@H]3Cc3ccc(Cl)cc3)CC2)s1` [compound 185, (2S,5S)-5-(4-chlorobenzyl)-2-methyl-4-(1-(5-methylthiazol-2-yl)piperidin-4-yl)morpholine 2,2,2-trifluoroacetate], the IC50 in assay [2] was less than 100 nM; in assay [3] it was 100 to 1000 nM. For the compound `CN1C[C@H](Cc2ccc(Cl)cc2)N(C2CCN(c3cc(Cl)ccn3)CC2)C[C@@H]1Cn1ccnc1` [compound 82, (2R,5S)-2-((1H-imidazol-1-yl)methyl)-5-(4-chlorobenzyl)-4-(1-(4-chloropyridin-2-yl)piperidin-4-yl)-1-methylpiperazine hydrochloride], the IC50 in assay [2] and in assay [3] was less than 100 nM each time.

Compound `CN(C)CCN(C)C[C@H]1CN(C2CCN(c3ncccn3)CC2)[C@@H](Cc2ccc(Cl)cc2)CO1` [compound 72, N^1-(((2S,5S)-5-(4-chlorobenzyl)-4-(1-(pyrimidin-2-yl)piperidin-4-yl)morpholin-2-yl)methyl)-N^1,N^2,N^2-trimethylethane-1,2-diamine 2,2,2-trifluoroacetate] displayed a half-maximal inhibitory concentration (IC50) in assay [2] of 1000 to 10000 nM.

In turn, `COc1ncnc(N2CCC(N3C[C@H](C)OC[C@@H]3Cc3ccc(Cl)cc3)CC2)n1` [compound 171, (2S,5S)-5-(4-chlorobenzyl)-4-(1-(4-methoxy-1,3,5-triazin-2-yl)piperidin-4-yl)-2-methylmorpholine 2,2,2-trifluoroacetate] showed an IC50 in assay [2] of more than 100000 nM. In assay [2], `O[C@@H]1CCN(C[C@H]2CN(C3CCN(c4ncccn4)CC3)[C@@H](Cc3ccc(Cl)cc3)CO2)C1` [compound 73, (R)-1-(((2S,5S)-5-(4-chlorobenzyl)-4-(1-(pyrimidin-2-yl)piperidin-4-yl)morpholin-2-yl)methyl)pyrrolidin-3-ol 2,2,2-trifluoroacetate] came in with an IC50 of 1000 to 10000 nM.

As for `C[C@H]1CN(C2CCN(c3cnccn3)CC2)[C@@H](Cc2ccc(Cl)cc2)CO1` [Example 12, (2S,5S)-5-(4-chlorobenzyl)-2-methyl-4-(1-(pyrazin-2-yl)piperidin-4-yl)morpholine 2,2,2-trifluoroacetate], the 50% inhibitory concentration (IC50) in assay [2] was in the range of 1000 to 10000 nM. As to `CC1CC(N2C[C@H](C)OC[C@@H]2Cc2ccc(Cl)cc2)CCN1c1cc(Cl)ccn1` (stereo partly drawn) [Example 34, (2S,5S)-5-(4-chlorobenzyl)-4-(1-(4-chloropyridin-2-yl)-2-methylpiperidin-4-yl)-2-methylmorpholine 2,2,2-trifluoroacetate], the IC50 in assay [2] fell in the range of 100 to 1000 nM. The compound `C[C@H]1CN(C2CCN(c3nnn[nH]3)CC2)[C@@H](Cc2ccc(Cl)cc2)CO1` [compound 166, (2S,5S)-4-(1-(1H-tetrazol-5-yl)piperidin-4-yl)-5-(4-chlorobenzyl)-2-methylmorpholine 2,2,2-trifluoroacetate] yielded a half-maximal inhibitory concentration (IC50) in assay [2] of more than 100000 nM. Take `C[C@H]1CN(C2CCN(c3ccnc(Br)c3)CC2)[C@@H](Cc2ccc(Cl)cc2)CO1` [compound 156, (2S,5S)-4-(1-(2-bromopyridin-4-yl)piperidin-4-yl)-5-(4-chlorobenzyl)-2-methylmorpholine hydrochloride]: the IC50 in assay [2] is 10000 to 100000 nM. In turn, `C[C@H]1CN(C2CCN(c3cc(C(=O)O)ccn3)CC2)[C@@H](Cc2ccc(Cl)cc2)CO1` [compound 125, 2-(4-((2S,5S)-5-(4-chlorobenzyl)-2-methylmorpholino)piperidin-1-yl)isonicotinic acid 2,2,2-trifluoroacetate] gave an IC50 in assay [2] of more than 100000 nM. In assay [2], `CC1(O)CCN(C2CCN(c3ccccn3)CC2)[C@@H](Cc2ccc(Cl)cc2)C1` (stereo partly drawn) [compound 92, (2S)-2-(4-chlorobenzyl)-4-methyl-1′-(pyridin-2-yl)-[1,4′-bipiperidin]-4-ol 2,2,2-trifluoroacetate] returned a half-inhibitory concentration (IC50) of less than 100 nM. `CN1CCN(C[C@H]2CN(C3CCN(c4cc(Cl)ccn4)CC3)[C@@H](Cc3ccc(Cl)cc3)CN2C)CC1` [compound 83, (2S,5S)-2-(4-chlorobenzyl)-1-(1-(4-chloropyridin-2-yl)piperidin-4-yl)-4-methyl-5-((4-methylpiperazin-1-yl)methyl)piperazine 2,2,2-trifluoroacetate] yielded a half-inhibitory concentration (IC50) in assay [2] of less than 100 nM. `Cc1nsc(N2CCC(N3C[C@H](C)OC[C@@H]3Cc3ccc(Cl)cc3)CC2)n1` [compound 180, (2S,5S)-5-(4-chlorobenzyl)-2-methyl-4-(1-(3-methyl-1,2,4-thiadiazol-5-yl)piperidin-4-yl)morpholine 2,2,2-trifluoroacetate] had an IC50 in assay [2] of more than 100000 nM. Regarding `Cc1nc(N2CCC(N3C[C@H](C)OC[C@@H]3Cc3ccc(Cl)cc3)CC2)sc1C` [compound 183, (2S,5S)-5-(4-chlorobenzyl)-4-(1-(4,5-dimethylthiazol-2-yl)piperidin-4-yl)-2-methylmorpholine 2,2,2-trifluoroacetate], the IC50 in assay [2] and in assay [3] was less than 100 nM in each case.
